Read-outs that look alike come from different tables or passages of the source. Marks after values point to notes of the source that are not given here.
Assays:
[1] = pH 2.7
Phytophthora infestans = assay: whole plant or invertebrate; format: in vivo; conditions: in Solanum lycopersicum, 168 h, read-out: efficacy
[2] = logP determination by HPLC (EEC Directive 79/831 Annex V.A8), LC-MS
physchem = conditions: pH 2.7
[3] = pH 2.7, log P (pH2.7), pH 2.7, value given in the preparation text
[4] = pH 2.7, logP, * acidic range, pH 2.7, 0.1% aqueous formic acid/acetonitrile
[5] = pH 7.8, logP, ** neutral range, pH 7.8, 0.001 molar aqueous ammonium bicarbonate/acetonitrile
[6] = * acidic range, pH 2.7, 0.1% aqueous formic acid/acetonitrile

O=C(Nc1cc(Cl)ccc1Cl)N1CCC(c2nc(CSc3nnnn3-c3ccccc3)cs2)CC1 [Compound I-49]
logP [1]: 3.95*

Cc1cc(C(F)(F)F)nn1CC(=S)N1CCC(c2nc(CSc3nnnn3-c3ccccc3)cs2)CC1 [Compound I-15, 2-[5-Methyl-3-(trifluoromethyl)-1H-pyrazol-1-yl]-1-[4-(4-{[(1-phenyl-1H-tetrazol-5-yl)sulphanyl]methyl}-1,3-thiazol-2-yl)piperidin-1-yl]ethanethione]
pest or weed control at 500 ppm (Phytophthora infestans): ≥ 70%
chromatographic logP [2, 3]: 3.82
chromatographic logP [2, 4]: 2.82
chromatographic logP [2, 5]: 2.87

Cc1ccc(C)c(NC(=S)N2CCC(c3nc(CSc4nnnn4-c4ccccc4)cs3)CC2)c1 [Compound I-98]
logP [1]: 3.52*

Cc1ccc(C)c(NC(=O)N2CCC(c3nc(CSc4nnnn4-c4ccccc4)cs3)CC2)c1 [Compound I-84]
logP [1]: 3.26*

Cc1cc(C(F)(F)F)nn1CC(=O)N1CCC(c2nc(C[S+]([O-])c3cccc4ccccc34)cs2)CC1 (stereo not shown) [Compound I-13, 2-[5-Methyl-3-(trifluoromethyl)-1H-pyrazol-1-yl]-1-(4-{4-[(1-naphthylsulphinyl)methyl]-1,3-thiazol-2-yl}piperidin-1-yl)ethanone]
pest or weed control at 500 ppm (Phytophthora infestans): ≥ 70%
chromatographic logP [2, 3]: 2.86
chromatographic logP [2, 4]: 2.86

Cc1ccc(Cl)cc1NC(=O)N1CCC(c2nc(CSc3nnnn3-c3ccccc3)cs2)CC1 [Compound I-24]
logP [1]: 3.43*

O=C(Cc1cc(Cl)ccc1Cl)N1CCC(c2nc(CSc3nnnn3-c3ccccc3)cs2)CC1 [Compound I-46]
logP [1]: 3.8*

Cc1cc(C(F)(F)F)nn1CC(=O)N1CCC(c2nc(CSC3CCCCC3)cs2)CC1 [Compound I-3, 1-(4-{4-[(Cyclohexylsulphanyl)methyl]-1,3-thiazol-2-yl}piperidin-1-yl)-2-[5-methyl-3-(trifluoromethyl)-1H-pyrazol-1-yl]ethanone]
pest or weed control at 500 ppm (Phytophthora infestans): ≥ 70%
chromatographic logP [2, 3]: 4.3
chromatographic logP [2, 4]: 4.3

O=C(Cn1nc(C(F)(F)F)cc1C(F)(F)F)N1CCC(c2nc(CSc3nnnn3-c3ccccc3)cs2)CC1 [Compound I-34]
logP [1]: 3.8*

Cc1ccc([N+](=O)[O-])cc1NC(=O)N1CCC(c2nc(CSc3nnnn3-c3ccccc3)cs2)CC1 [Compound I-18]
logP [1]: 3.09*

Cc1cc(C(F)(F)F)nn1CC(=O)N1CCC(c2nc(CS(=O)(=O)c3cccc4ccccc34)cs2)CC1 [Compound I-10, 2-[5-Methyl-3-(trifluoromethyl)-1H-pyrazol-1-yl]-1-(4-{4-[(1-naphthylsulphonyl)methyl]-1,3-thiazol-2-yl}piperidin-1-yl)ethanone]
pest or weed control at 500 ppm (Phytophthora infestans): ≥ 70%
chromatographic logP [2, 3]: 3.21
chromatographic logP [2, 4]: 3.19

Cc1cc(C(F)(F)F)nn1CC(=O)N1CCC(c2nc(CS(=O)(=O)C34CC5CC(CC(C5)C3)C4)cs2)CC1 [Compound I-6, 1-[4-(4-{[(3S,5S,7S)-Adamantan-1-ylsulphonyl]methyl}-1,3-thiazol-2-yl)piperidin-1-yl]-2-[5-methyl-3-(trifluoromethyl)-1H-pyrazol-1-yl]ethanone]
log P (pH2.7) [1]: 3.42
logP [1]: 3.4*

O=C(Cn1nc(C(F)F)cc1C(F)F)N1CCC(c2nc(CSc3nnnn3-c3ccccc3)cs2)CC1 [Compound I-35]
logP [1]: 3.11*

Cc1cc(C(F)(F)F)nn1CC(=O)N1CCC(c2nc(CSc3nccn3-c3ccccc3)cs2)CC1 [Compound I-61]
logP [2, 6]: 2.22*

Cc1cc(C(F)(F)F)nn1CC(=O)N1CCC(c2nc(CSc3cccc4ccccc34)cs2)CC1 [Compound I-1, 2-[5-Methyl-3-(trifluoromethyl)-1H-pyrazol-1-yl]-1-(4-{4-[(1-naphthylsulphanyl)methyl]-1,3-thiazol-2-yl}piperidin-1-yl)ethanone]
pest or weed control at 500 ppm (Phytophthora infestans): ≥ 70%
chromatographic logP [2, 3]: 4.33
chromatographic logP [2, 4]: 4.33

Cc1ccc(F)cc1NC(=O)N1CCC(c2nc(CSc3nnnn3-c3ccccc3)cs2)CC1 [Compound I-63]
logP [2, 6]: 3.2*

Cc1ccc(C)c(CC(=O)N2CCC(c3nc(CSC45CC6CC(CC(C6)C4)C5)cs3)CC2)c1 [Compound I-27]
logP [2, 6]: 5.99*

Cc1cc(C(F)(F)F)nn1CC(=O)N1CCC(c2nc(CSC34CC5CC(CC(C5)C3)C4)cs2)CC1 [Compound I-2, 1-[4-(4-{[(3S,5S,7S)-Adamantan-1-ylsulphanyl]methyl}-1,3-thiazol-2-yl)piperidin-1-yl]-2-[5-methyl-3-(trifluoromethyl)-1H-pyrazol-1-yl]ethanone]
log P (pH2.7) [1]: 5.21
logP [1]: 5.21*

O=C(Nc1cc(C(F)(F)F)ccc1Cl)N1CCC(c2nc(CSc3nnnn3-c3ccccc3)cs2)CC1 [Compound I-76]
logP [2, 6]: 4.2*

Cc1ccc(F)c(NC(=O)N2CCC(c3nc(CSc4nnnn4-c4ccccc4)cs3)CC2)c1 [Compound I-60]
logP [1]: 3.28*

O=C(Cn1nc(C(F)F)cc1C(F)F)N1CCC(c2nc(CS(=O)(=O)c3nnnn3-c3ccccc3)cs2)CC1 [Compound I-29]
logP [1]: 2.97*

COc1ccc(OC)c(NC(=O)N2CCC(c3nc(CSc4nnnn4-c4ccccc4)cs3)CC2)c1 [Compound I-25]
logP [2, 6]: 3.26*

CC(C)(C)OC(=O)N1CCC(c2nc(CSC(=N)N)cs2)CC1 [IX-1, Amino[({2-[1-(tert-butoxycarbonyl)piperidin-4-yl]-1,3-thiazol-4-yl}methyl)sulphanyl]methaniminium iodide]
chromatographic logP (physchem): 1.44

CC(C)(C)OC(=O)N1CCC(c2nc(CSc3nnnn3-c3ccccc3)cs2)CC1 [IV-4, tert-Butyl 4-(4-{[(1-phenyl-1H-tetrazol-5-yl)sulphanyl]methyl}-1,3-thiazol-2-yl)piperidine-1-carboxylate]
chromatographic logP [2, 3]: 3.91

Cc1cc(C(F)(F)F)nn1CC(=O)N1CCC(c2nc(CSC3=NOC(c4ccccc4)C3)cs2)CC1 (racemic) [Compound I-88]
logP [2, 6]: 3.52*

Cc1noc(C)c1NC(=S)N1CCC(c2nc(CSc3nnnn3-c3ccccc3)cs2)CC1 [Compound I-99]
logP [2, 6]: 2.7*

Cc1cc(C(F)(F)F)nn1CC(=O)N1CCC(c2nc(CS(=O)(=O)c3cccc4cccnc34)cs2)CC1 [Compound I-9, 1-(4-{4-[(Quinolin-8-ylsulphonyl)methyl]-1,3-thiazol-2-yl}piperidin-1-yl)-2-[5-methyl-3-(trifluoromethyl)-1H-pyrazol-1-yl]ethanone]
pest or weed control at 500 ppm (Phytophthora infestans): ≥ 70%
chromatographic logP [2, 3]: 2.63
chromatographic logP [2, 4]: 2.63

O=C(Cn1nc(C(F)(F)F)cc1C(F)(F)F)N1CCC(c2nc(CS(=O)(=O)c3nnnn3-c3ccccc3)cs2)CC1 [Compound I-26]
logP [2, 6]: 3.59*

O=C(Cn1nc(C(F)F)cc1C(F)F)N1CCC(c2nc(CSc3nccn3-c3ccccc3)cs2)CC1 [Compound I-65]
logP [2, 6]: 2.13*

Cc1ccc(C)c(CC(=O)N2CCC(c3nc(CSc4cccc5ccccc45)cs3)CC2)c1 [Compound I-43]
logP [2, 6]: 4.86*

COc1ccc(C)cc1NC(=O)N1CCC(c2nc(CSc3nnnn3-c3ccccc3)cs2)CC1 [Compound I-33]
logP [1]: 3.5*

Cc1cc(C(F)(F)F)nn1CC(=O)N1CCC(c2nc(CS(=O)(=O)c3nnnn3-c3ccccc3)cs2)CC1 [Compound I-8, 2-[5-Methyl-3-(trifluoromethyl)-1H-pyrazol-1-yl]-1-[4-(4-{[(1-phenyl-1H-tetrazol-5-yl)sulphonyl]methyl}-1,3-thiazol-2-yl)piperidin-1-yl]ethanone]
pest or weed control at 500 ppm (Phytophthora infestans): ≥ 70%
chromatographic logP [2, 3]: 3.1
chromatographic logP [2, 4]: 3.07

Cc1ccc(C)c(NC(=O)N2CCC(c3nc(CSC45CC6CC(CC(C6)C4)C5)cs3)CC2)c1 [Compound I-72]
logP [1]: 5.38*

Cc1ccc(Cl)c(NC(=O)N2CCC(c3nc(CSc4nnnn4-c4ccccc4)cs3)CC2)c1 [Compound I-87]
logP [1]: 3.72*

Cc1ccc(C)c(NC(=O)N2CCC(c3nc(CSc4cccc5ccccc45)cs3)CC2)c1 [Compound I-47]
logP [2, 6]: 4.37*

Cc1cc(C(F)(F)F)nn1CC(=O)N1CCC(c2nc(C[S+]([O-])c3nnnn3-c3ccccc3)cs2)CC1 (stereo not shown) [Compound I-14, 2-[5-Methyl-3-(trifluoromethyl)-1H-pyrazol-1-yl]-1-[4-(4-{[(1-phenyl-1H-tetrazol-5-yl)sulphinyl]methyl}-1,3-thiazol-2-yl)piperidin-1-yl]ethanone]
chromatographic logP [2, 3]: 2.69
chromatographic logP [2, 4]: 2.69

Cc1cc(C(F)(F)F)nn1CC(=O)N1CCC(c2nc(CS(=O)(=O)C3CCCCC3)cs2)CC1 [Compound I-7, 1-(4-{4-[(Cyclohexylsulphonyl)methyl]-1,3-thiazol-2-yl}piperidin-1-yl)-2-[5-methyl-3-(trifluoromethyl)-1H-pyrazol-1-yl]ethanone]
pest or weed control at 500 ppm (Phytophthora infestans): ≥ 70%
chromatographic logP [2, 3]: 2.9
chromatographic logP [2, 4]: 2.9
chromatographic logP [2, 5]: 2.87

CC(C)(C)OC(=O)N1CCC(c2nc(CI)cs2)CC1 [VI-1, tert-Butyl 4-[4-(iodomethyl)-1,3-thiazol-2-yl]piperidine-1-carboxylate]
chromatographic logP [2, 3]: 3.71

Cc1noc(C)c1NC(=O)N1CCC(c2nc(CSc3nnnn3-c3ccccc3)cs2)CC1 [Compound I-75]
logP [2, 6]: 2.22*

Cc1ccc(C)c(NC(=O)N2CCC(c3nc(CSC4CCCCC4)cs3)CC2)c1 [Compound I-16]
logP [2, 6]: 4.38*

Cc1cc(C(F)(F)F)nn1CC(=O)N1CCC(c2nc(CSc3nnnn3-c3ccccc3)cs2)CC1 [Compound I-4, 2-[5-Methyl-3-(trifluoromethyl)-1H-pyrazol-1-yl]-1-[4-(4-{[(1-phenyl-1H-tetrazol-5-yl)sulphanyl]methyl}-1,3-thiazol-2-yl)piperidin-1-yl]ethanone]
chromatographic logP [2, 3]: 3.25
chromatographic logP [2, 4]: 3.25
chromatographic logP [2, 5]: 3.26

From patent US20130090476A1, “Thiazolylpiperidine Derivatives as Fungicides” (priority 2009, published 2013)
